Read-outs that look alike come from different tables or passages of the source.
What was measured:
Format in all cases: cell-based, human
[1] = test system: senescent IMR90 ER:RAS cells (4-OHT-induced); assay: Nuclei count (Hoechst, high content imaging) senolytic assay, oncogene-induced senescence (OIS) model, senescent cells; conditions: Homo sapiens
How it was run: (§1)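 IMR90 ER:RAS (p14), ±4-OHT 100 nM; cpd 10 nM–10 μM, 10-pt […], 72 h, n=3. Fix formaldehyde, Triton X-100, Hoechst 2 μg/ml final. Readout: imaged nuclei count vs untreated; ouabain positive control.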

[2] = test system: non-senescent control IMR90 ER:RAS cells; assay: Nuclei count (Hoechst, high content imaging) senolytic assay, OIS model, non-senescent control cells; conditions: Homo sapiens
How it was run: as §1

[3] = test system: senescent A549 cells (etoposide-induced); assay: Nuclei count senolytic assay, therapy-induced senescence (TIS) model, senescent cells; conditions: Homo sapiens, A549, Senescent cells, mean, read-out: Mean % Cell Survival
How it was run: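 Etoposide 100 μM, 48 h, + 3 d standard media → senescent A549; untreated A549 = controls. 24 h post-seeding, cpds 10 nM–10 μM final, 10-pt […], 72 h, n=3. Fix formaldehyde, permeabilise Triton-X100, Hoechst 2 μg/ml, image, count nuclei.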

CO[C@H]1C[C@@H]2CC[C@@H](C)[C@@](O)(O2)C(=O)C(=O)N2CCCC[C@H]2C(=O)O[C@H]([C@H](C)C[C@@H]2CC[C@@H](O)[C@H](OC)C2)CC(=O)[C@H](C)/C=C(\C)[C@@H](O)[C@@H](OC)C(=O)[C@H](C)C[C@H](C)/C=C/C=C/C=C/1C [Rapamycin, rapamycin, reference compound]
viability at 10 µM ([1]; IMR-90, 72 h, Senescent, log (dose) [M] -5, 72 h, mean n=3 (Fig 3C), read-out: Mean % Cell Survival): 98.4%
viability at 4.677 µM ([1]; IMR-90, 72 h, Senescent, log (dose) [M] -5.33, 72 h, mean n=3 (Fig 3C), read-out: Mean % Cell Survival): 103%
viability at 2.188 µM ([1]; IMR-90, 72 h, Senescent, log (dose) [M] -5.66, 72 h, mean n=3 (Fig 3C), read-out: Mean % Cell Survival): 114%
viability at 1 µM ([1]; IMR-90, 72 h, Senescent, log (dose) [M] -6, 72 h, mean n=3 (Fig 3C), read-out: Mean % Cell Survival): 90.6%
viability at 0.4677 µM ([1]; IMR-90, 72 h, Senescent, log (dose) [M] -6.33, 72 h, mean n=3 (Fig 3C), read-out: Mean % Cell Survival): 101%
viability at 0.2188 µM ([1]; IMR-90, 72 h, Senescent, log (dose) [M] -6.66, 72 h, mean n=3 (Fig 3C), read-out: Mean % Cell Survival): 97.8%
viability at 0.1 µM ([1]; IMR-90, 72 h, Senescent, log (dose) [M] -7, 72 h, mean n=3 (Fig 3C), read-out: Mean % Cell Survival): 92.6%
viability at 0.04677 µM ([1]; IMR-90, 72 h, Senescent, log (dose) [M] -7.33, 72 h, mean n=3 (Fig 3C), read-out: Mean % Cell Survival): 105%
viability at 0.02188 µM ([1]; IMR-90, 72 h, Senescent, log (dose) [M] -7.66, 72 h, mean n=3 (Fig 3C), read-out: Mean % Cell Survival): 93.9%
viability at 0.01 µM ([1]; IMR-90, 72 h, Senescent, log (dose) [M] -8, 72 h, mean n=3 (Fig 3C), read-out: Mean % Cell Survival): 92%
viability at 10 µM ([1]; IMR-90, Senescent cells, log (dose) [M] -5, individual replicates, SUP FIG 4C, read-out: % Cell Survival): 94.1%
viability at 4.677 µM ([1]; IMR-90, Senescent cells, log (dose) [M] -5.33, individual replicates, SUP FIG 4C, read-out: % Cell Survival): 113%
viability at 0.2188 µM ([1]; IMR-90, Senescent cells, log (dose) [M] -6.66, individual replicates, SUP FIG 4C, read-out: % Cell Survival): 104%
viability at 0.1 µM ([1]; IMR-90, Senescent cells, log (dose) [M] -7, individual replicates, SUP FIG 4C, read-out: % Cell Survival): 95.9%
viability at 0.04677 µM ([1]; IMR-90, Senescent cells, log (dose) [M] -7.33, individual replicates, SUP FIG 4C, read-out: % Cell Survival): 107%
viability at 0.02188 µM ([1]; IMR-90, Senescent cells, log (dose) [M] -7.66, individual replicates, SUP FIG 4C, read-out: % Cell Survival): 102%
viability at 0.01 µM ([1]; IMR-90, Senescent cells, log (dose) [M] -8, individual replicates, SUP FIG 4C, read-out: % Cell Survival): 88.4%
viability at 10 µM ([2]; IMR-90, 72 h, Control, log (dose) [M] -5, 72 h, mean n=3 (Fig 3C), read-out: Mean % Cell Survival): 98.8%
viability at 4.677 µM ([2]; IMR-90, 72 h, Control, log (dose) [M] -5.33, 72 h, mean n=3 (Fig 3C), read-out: Mean % Cell Survival): 100%
viability at 2.188 µM ([2]; IMR-90, 72 h, Control, log (dose) [M] -5.66, 72 h, mean n=3 (Fig 3C), read-out: Mean % Cell Survival): 89.2%
viability at 1 µM ([2]; IMR-90, 72 h, Control, log (dose) [M] -6, 72 h, mean n=3 (Fig 3C), read-out: Mean % Cell Survival): 83.1%
viability at 0.4677 µM ([2]; IMR-90, 72 h, Control, log (dose) [M] -6.33, 72 h, mean n=3 (Fig 3C), read-out: Mean % Cell Survival): 85.7%
viability at 0.2188 µM ([2]; IMR-90, 72 h, Control, log (dose) [M] -6.66, 72 h, mean n=3 (Fig 3C), read-out: Mean % Cell Survival): 86.6%
viability at 0.1 µM ([2]; IMR-90, 72 h, Control, log (dose) [M] -7, 72 h, mean n=3 (Fig 3C), read-out: Mean % Cell Survival): 92.6%
viability at 0.04677 µM ([2]; IMR-90, 72 h, Control, log (dose) [M] -7.33, 72 h, mean n=3 (Fig 3C), read-out: Mean % Cell Survival): 86.3%
viability at 0.02188 µM ([2]; IMR-90, 72 h, Control, log (dose) [M] -7.66, 72 h, mean n=3 (Fig 3C), read-out: Mean % Cell Survival): 95.8%
viability at 0.01 µM ([2]; IMR-90, 72 h, Control, log (dose) [M] -8, 72 h, mean n=3 (Fig 3C), read-out: Mean % Cell Survival): 100%
viability at 10 µM ([2]; IMR-90, Control cells, log (dose) [M] -5, individual replicates, SUP FIG 4C, read-out: % Cell Survival): 91.9%
viability at 0.4677 µM ([2]; IMR-90, Control cells, log (dose) [M] -6.33, individual replicates, SUP FIG 4C, read-out: % Cell Survival): 77.2%
viability at 0.2188 µM ([2]; IMR-90, Control cells, log (dose) [M] -6.66, individual replicates, SUP FIG 4C, read-out: % Cell Survival): 83%
viability at 0.1 µM ([2]; IMR-90, Control cells, log (dose) [M] -7, individual replicates, SUP FIG 4C, read-out: % Cell Survival): 91%
viability at 0.04677 µM ([2]; IMR-90, Control cells, log (dose) [M] -7.33, individual replicates, SUP FIG 4C, read-out: % Cell Survival): 89.7%
viability at 0.02188 µM ([2]; IMR-90, Control cells, log (dose) [M] -7.66, individual replicates, SUP FIG 4C, read-out: % Cell Survival): 93%
viability at 0.01 µM ([2]; IMR-90, Control cells, log (dose) [M] -8, individual replicates, SUP FIG 4C, read-out: % Cell Survival): 109%
viability at 2.19 µM ([2]; IMR-90, Control, log (dose) [M] -5.66, read-out: % Cell Survival): 80.5%
viability at 10 µM ([3]; log (dose) [M] -5): 212%
viability at 4.68 µM ([3]; log (dose) [M] -5.33): 215%
viability at 2.19 µM ([3]; log (dose) [M] -5.66): 208%
viability at 1 µM ([3]; log (dose) [M] -6): 228%
viability at 0.468 µM ([3]; log (dose) [M] -6.33): 246%
viability at 0.219 µM ([3]; log (dose) [M] -6.66): 228%
viability at 0.1 µM ([3]; log (dose) [M] -7): 250%
viability at 0.0468 µM ([3]; log (dose) [M] -7.33): 249%
viability at 0.0219 µM ([3]; log (dose) [M] -7.66): 69.5%
viability at 0.01 µM ([3]; log (dose) [M] -8): 93.7%

Reference: paper PMC10257182, “Discovery of senolytics using machine learning” (Nature Communications, 2023)
